Data taken from the Deep4Chem optical property database.
Blank lines part the entries; values can stand above or below the molecule they belong to.

Experiment: photoluminescence quantum yield (fraction); solvent given as SMILES

Structure (SMILES): O=C(O)CC[N+]1=c2cc3c(cc2CCC1)=Cc1c(c2cc4c5c(c2oc1=O)CCCN5CCC4)O3
photoluminescence quantum yield (in CC#N): 0.025 | photoluminescence quantum yield (in CO): 0.013 | photoluminescence quantum yield (in ClCCl): 0.163 | photoluminescence quantum yield (in O): 0.003

Structure (SMILES): CC(=O)[B-]1(C(C)=O)OC(C)=CC(c2ccc3ccccc3c2)=[O+]1
photoluminescence quantum yield (in CC#N): 0.13 | photoluminescence quantum yield (in ClC(Cl)(Cl)Cl): 0.16

Structure (SMILES): CC/[NH+]=c1\cc2oc3cc(NCCC(=O)NCC(=O)OC)c4ccccc4c3nc-2cc1C
photoluminescence quantum yield (in CCO): 0.37 | photoluminescence quantum yield (in O): 0.45

Structure (SMILES): Cc1ccc2ccccc2c1
photoluminescence quantum yield (in C1CCCCC1): 0.52

Structure (SMILES): COc1ccc(NC(=O)C(C(=O)Nc2ccc(OC)cc2)C(c2cc(F)ccc2O)c2c[nH]c3ccc(OC)cc23)cc1 (stereo not drawn)
photoluminescence quantum yield (in CS(C)=O): 0.018

Structure (SMILES): CCCCCCCCOc1ccc(-c2c3c4n(c(-c5ccc(OCCCCCCCC)cc5)c3c3n2[B-](c2ccccc2)(c2ccccc2)[n+]2c(ccc5cc(C(C)(C)C)ccc52)C=3C#N)[B-](c2ccccc2)(c2ccccc2)[n+]2c(ccc3cc(C(C)(C)C)ccc32)C=4C#N)cc1
photoluminescence quantum yield (in ClC(Cl)Cl): 0.53

Structure (SMILES): CC1=CC(C)=[N+]2C1=C(c1ccc(I)cc1)c1c(C)cc(C)n1[B-]21Oc2ccc3ccccc3c2-c2c(ccc3ccccc23)O1
photoluminescence quantum yield (in ClC(Cl)Cl): 0.002

Structure (SMILES): CCOC(=O)c1cc(C(=O)OCC)c2cc(N)ccc2n1
photoluminescence quantum yield (in CCO): 0.4

Structure (SMILES): O=Cc1ccc(C#CC(C#Cc2ccc(C=O)o2)=Cc2ccc(C=C(C#Cc3ccc(C=O)o3)C#Cc3ccc(C=O)o3)s2)o1
photoluminescence quantum yield (in ClC(Cl)Cl): 0.01

The next lines start with the values.

photoluminescence quantum yield (in CN(C)C=O): 0.275
Structure (SMILES): Cc1nc2cccc(-c3nc4ccc(Cl)cc4o3)c2c(=O)[nH]1

photoluminescence quantum yield (in C1CCCCC1): 0.51
Structure (SMILES): C1=C(c2ccccc2)B(c2ccccc2)Nc2c1ccc1ccccc21

photoluminescence quantum yield (in ClCCl): 0.17
Structure (SMILES): c1ccc(B2Nc3cc4c(cc3-c3sccc32)NB(c2ccccc2)c2ccsc2-4)cc1

photoluminescence quantum yield (in ClCCl): 0.11
Structure (SMILES): CC1(C)c2ccccc2-c2sc3ccccc3c21

photoluminescence quantum yield (in CC#N): 0.0041 | photoluminescence quantum yield (in CC(C)O): 0.054 | photoluminescence quantum yield (in CCO): 0.082 | photoluminescence quantum yield (in CO): 0.12 | photoluminescence quantum yield (in OCCO): 0.23
Structure (SMILES): Cc1ccc2sc3cc(CCC(=O)O)ccc3c(=O)c2c1
